One block for each compound: values may come before it.
Columns and labels:
LIM1215 = assay: Antimitotic effects (G2/M cell cycle block, DNA staining, ModFit) on LIM1215; assay type: cell-based, human; settings: for % of Taxol (proportion of cells in G2M test/proportion of cells in G2M Taxol): 24 hrs, standard 1 μM Taxol; for IC50: Homo sapiens, inhibitors added to cells in log-growth for 24 hrs, read-out: IC50 for progression through the cell cycle
Text: (§1) For the initial studies two colon carcinoma cell lines (LIM1215 and SW480) and two breast cancer cell lines (MDA-MB-231 and MCF-7) were used. Taxol was used as comparator in these experiments (Table 1).

SW480 = assay: Antimitotic effects (G2/M cell cycle block, DNA staining, ModFit) on SW480; assay type: cell-based, human; settings: for % of Taxol (proportion of cells in G2M test/proportion of cells in G2M Taxol): 24 hrs, standard 1 μM Taxol; for IC50: Homo sapiens, inhibitors added to cells in log-growth for 24 hrs, read-out: IC50 for progression through the cell cycle
Text: as §1

MDA-MB-231 = assay: Antimitotic effects (G2/M cell cycle block, DNA staining, ModFit) on MDA-MB-231; assay type: cell-based, human; settings: for % of Taxol (proportion of cells in G2M test/proportion of cells in G2M Taxol): 24 hrs, standard 1 μM Taxol; for IC50: Homo sapiens, inhibitors added to cells in log-growth for 24 hrs, read-out: IC50 for progression through the cell cycle
Text: as §1

MCF-7 = assay: Antimitotic effects (G2/M cell cycle block, DNA staining, ModFit) on MCF-7; assay type: cell-based, human; settings: for % of Taxol (proportion of cells in G2M test/proportion of cells in G2M Taxol): 24 hrs, standard 1 μM Taxol; for IC50: Homo sapiens, MCF7, inhibitors added to cells in log-growth for 24 hrs, read-out: IC50 for progression through the cell cycle
Text: as §1

[1] = tested on: LIM2537 human colon carcinoma cell line; assay: MTS assay using LIM2537 human colon carcinoma cell line; assay type: cell-based; settings: 96 h, LIM2537, 4 days incubation, read-out: IC50 Range
Method: • Cells plated at […] in 100 μl medium+5% FCS (+Adds^1): • Cells incubated overnight: • Titrate inhibitors in a fresh plate in 150 μl medium • Transfer 100 μl titrated compounds to matching wells of the cell plate. • Incubate a further 4 days: • Add 10 μl MTS^2 or MTT^3 for 1.5 to 2 hours and read on Multiscanner (wavelengths 492/690) ^1 Additives for culture of LIM cell lines: 10 μM thioglycerol, 0.025 U/ml insulin, 1 μg/ml hydrocortisone. ^2 3-(4,5-dimethylthiazol-2-yl)-5-(3-carboxymethoxyphenyl)-2-(4-sulfophenyl)-2H-tetrazolium. ^3 3-(4,5-Dimethylthiazol-2-yl)-2,5-diphenyltetrazolium bromide
• LIM2537 human colon carcinoma cell line, grown in RPMI+Adds^1+5% FCS
Cells are trypsinized and washed ×2 in medium+5% FCS and plate out at 10^4 cells per well in 100 μl.
Incubate plates o/n 37° C.+5%-10% CO2 incubator.
Inhibitors are dissolved in DMSO to make 10 mM stocks and titrated in a 96 well plate in duplicate to use as the stock for the test plate. Titration range from 40 μM down to […] in ½ dilutions and 100 μl of each dilution transferred to the appropriate wells of the test plate that contains the cells (also in 100 μl) which results in the final concentration of the inhibitors being 20 μM down to 0.01 μM across the rows in duplicate. Three inhibitors are tested per plate (Rows A-F).
Each plate has the following: • Rows A,B: Inhibitor 1 dilutions, 200 μl per well • Rows C,D: Inhibitor 2 dilutions, 200 μl per well • Rows E,F: Inhibitor 3 dilutions, 200 μl per well • Control row G1-6: Medium+5% FCS (for maximum growth) • Control row G7-12: Taxol (250 nM for maximal inhibition) • Control row H: Remove medium from cells and replace with 200 μl Serum Free medium for serum free growth rate.
Incubate plates for 4 days in incubator. Process with MTS or MTT as outlined below.
To each well add 10 μl MTS (Sigma) solution. Incubate MTS for 1.5 to 2 hours and MTT for 4 hours. Stop reaction by adding 10 μl 10% SDS to each well. Read on Multiscan (492/690) plate reader, plot colour change versus concentration of inhibitor to establish the IC50.

tubulin = assay: Tubulin polymerization in intact cells (soluble vs polymerized tubulin, immunoblot); assay type: cell-based; settings: LIM 1215 cells, NP-40 lysis, immunoblot with β-tubulin antibodies
Method: Equal volumes of supernatant and resuspended insoluble material were analyzed by SDS/PAGE and immunoblotting with antibodies to β-tubulin. S=soluble and P=polymerized tubulin. […] To monitor the effects of triazines on tubulin, the present inventors tested tubulin polymerization in intact cells following exposure to the drug. Cells treated with Taxol or with compound 3 were lysed in hypotonic buffer containing 0.5% NP-40 and the cellular extracts were centrifuged at high speed. Polymerized tubulin is detergent-insoluble: thus after this treatment soluble tubulin is recovered in the supernatants (S), and polymerized tubulin in the cellular pellets (P). The relative proportion of the two forms was monitored by SDS/PAGE and immunoblotting with tubulin-specific antibodies.

[2] = Dose escalation in mice (tolerability and toxicity); assay type: in vivo; settings: C57Bl/6 mice, subcutaneous in DMSO, sacrificed 24 hrs post-injection
Method: Compound 1 was initially tested for tolerability and toxicity in mice. C57Bl/6 mice (aged 8-12 weeks) were injected subcutaneously with escalating doses of Compound 1 in a constant volume of DMSO. Mice were sacrificed 24 hrs post-injection. There were no adverse effects of doses up to 80 mg/kg within this time-frame. Thus the compound is well tolerated at doses that far exceed the IC50 observed “in vitro”.
These minor skin lesions healed readily within 2-3 days.

Structure (SMILES): COc1ccc(CNc2nc(NCc3ccc(OC)cc3)nc(NC3NC(=O)N(C)C3=O)n2)cc1 (centres unmarked) [Compound 3, 5-[4,6-Bis-(4-methoxy-benzylamino)-[1,3,5]-triazin-2-ylamino]-3-methyl-imidazolidine-2,4-dione]
% of Taxol (proportion of cells in G2M test/proportion of cells in G2M Taxol) (LIM1215): 108%
IC50 (LIM1215): 3000 nM
% of Taxol (proportion of cells in G2M test/proportion of cells in G2M Taxol) (SW480): 106%
IC50 (SW480): 1450 nM
% of Taxol (proportion of cells in G2M test/proportion of cells in G2M Taxol) (MDA-MB-231): 93%
IC50 (MDA-MB-231): 3000 nM
% of Taxol (proportion of cells in G2M test/proportion of cells in G2M Taxol) (MCF-7): 102%
IC50 (MCF-7): 450 nM

Structure (SMILES): CC(=O)O[C@H]1C(=O)[C@@]2(C)[C@H]([C@H](OC(=O)c3ccccc3)[C@]3(O)C[C@H](OC(=O)[C@H](O)[C@@H](NC(=O)c4ccccc4)c4ccccc4)C(C)=C1C3(C)C)[C@]1(OC(C)=O)CO[C@@H]1C[C@@H]2O [Taxol, reference compound]
% of Taxol (proportion of cells in G2M test/proportion of cells in G2M Taxol) (LIM1215): 100%
IC50 (LIM1215): 10 nM
% of Taxol (proportion of cells in G2M test/proportion of cells in G2M Taxol) (SW480): 100%
IC50 (SW480): 8 nM
% of Taxol (proportion of cells in G2M test/proportion of cells in G2M Taxol) (MDA-MB-231): 100%
IC50 (MDA-MB-231): 8 nM
% of Taxol (proportion of cells in G2M test/proportion of cells in G2M Taxol) (MCF-7): 100%
IC50 (MCF-7): 8 nM
Stabilization of tubulin in treated cells (soluble vs polymerized) (tubulin): strongly stabilized tubulin in a dose-dependent manner

Structure (SMILES): COc1ccc(CNc2nc(NCc3ccc(CN4CCOCC4)cc3)nc(NN3CC(=O)NC3=O)n2)cc1 [Compound 14, 1-((4-((4-methoxybenzyl)amino)-6-((4-(morpholinomethyl)benzyl)amino)-1,3,5-triazin-2-yl)amino)imidazolidine-2,4-dione]
IC50 [1]: > 10000 nM

Structure (SMILES): COc1ccc(CNc2nc(NCc3ccc(OC)cc3)nc(NN3CC(=O)NC3=O)n2)cc1 [Compound 1, 1-[4,6-Bis-(4-methoxybenzylamino)-{1,3,5}-triazin-2-yl-amino]-imidazolidine-2,4-dione]
% of Taxol (proportion of cells in G2M test/proportion of cells in G2M Taxol) (LIM1215): 105%
IC50 (LIM1215): 70 nM
% of Taxol (proportion of cells in G2M test/proportion of cells in G2M Taxol) (SW480): 120%
IC50 (SW480): 50 nM
% of Taxol (proportion of cells in G2M test/proportion of cells in G2M Taxol) (MDA-MB-231): 94%
IC50 (MDA-MB-231): 13 nM
% of Taxol (proportion of cells in G2M test/proportion of cells in G2M Taxol) (MCF-7): 108%
IC50 (MCF-7): 9 nM
Doses with no adverse effects [2]: up to 80 mg/kg

Structure (SMILES): CCN(CC)CCOc1ccc(CNc2nc(NCc3ccc(OC)cc3)nc(NN3CC(=O)NC3=O)n2)cc1 [Compound 23, 1-((4-((4-(2-(diethylamino)ethoxy)benzyl)amino)-6-((4-methoxybenzyl)amino)-1,3,5-triazin-2-yl)amino)imidazolidine-2,4-dione]
IC50 [1]: 1000 to 10000 nM

Structure (SMILES): COc1ccc(CNc2nc(NCc3cccc(N4CCOCC4)c3)nc(NN3CC(=O)NC3=O)n2)cc1 [Compound 21, 1-((4-((4-methoxybenzyl)amino)-6-((3-morpholinobenzyl)amino)-1,3,5-triazin-2-yl)amino)imidazolidine-2,4-dione]
IC50 [1]: 1000 to 10000 nM

Structure (SMILES): COc1ccc(CNc2nc(NCc3cccc(N4CCN(C)CC4)c3)nc(NN3CC(=O)NC3=O)n2)cc1 [Compound 22, 1-((4-((4-methoxybenzyl)amino)-6-((3-(4-methylpiperazin-1-yl)benzyl)amino)-1,3,5-triazin-2-yl)amino)imidazolidine-2,4-dione]
IC50 [1]: > 10000 nM

The remaining lines, values ahead:

IC50 [1]: 100 to 1000 nM
Structure (SMILES): COc1ccc(CNc2nc(NCc3cccc(N4CCCCC4)c3)nc(NN3CC(=O)NC3=O)n2)cc1 [Compound 20, 1-((4-((4-methoxybenzyl)amino)-6-((3-(piperidin-1-yl)benzyl)amino)-1,3,5-triazin-2-yl)amino)imidazolidine-2,4-dione]

IC50 [1]: 1000 to 10000 nM
Structure (SMILES): CCN(CC)Cc1ccc(CNc2nc(NCc3ccc(OC)cc3)nc(NN3CC(=O)NC3=O)n2)cc1 [Compound 15, 1-((4-((4-((diethylamino)methyl)benzyl)amino)-6-((4-methoxybenzyl)amino)-1,3,5-triazin-2-yl)amino)imidazolidine-2,4-dione]

IC50 [1]: 100 to 1000 nM
Structure (SMILES): COc1ccc(CNc2nc(NCc3ccc(OCCN4CCOCC4)cc3)nc(NN3CC(=O)NC3=O)n2)cc1 [Compound 24, 1-((4-((4-methoxybenzyl)amino)-6-((4-(2-morpholinoethoxy)benzyl)amino)-1,3,5-triazin-2-yl)amino)imidazolidine-2,4-dione]

IC50 [1]: ≤ 100 nM
Structure (SMILES): COc1ccc(CNc2nc(NCc3ccc(N4CCCCC4)cc3)nc(NN3CC(=O)NC3=O)n2)cc1 [Compound 17, 1-((4-((4-methoxybenzyl)amino)-6-((4-(piperidin-1-yl)benzyl)amino)-1,3,5-triazin-2-yl)amino)imidazolidine-2,4-dione]

IC50 [1]: 100 to 1000 nM
Structure (SMILES): COc1ccc(CNc2nc(NCc3ccc(CN4CCCCC4)cc3)nc(NN3CC(=O)NC3=O)n2)cc1 [Compound 13, 1-((4-((4-methoxybenzyl)amino)-6-((4-(piperidin-1-ylmethyl)benzyl)amino)-1,3,5-triazin-2-yl)amino)imidazolidine-2,4-dione]

IC50 [1]: 100 to 1000 nM
Structure (SMILES): COc1ccc(CNc2nc(NCc3ccc(N4CCOCC4)cc3)nc(NN3CC(=O)NC3=O)n2)cc1 [Compound 18, 1-((4-((4-methoxybenzyl)amino)-6-((4-morpholinobenzyl)amino)-1,3,5-triazin-2-yl)amino)imidazolidine-2,4-dione]

IC50 [1]: 100 to 1000 nM
Structure (SMILES): COc1ccc(CNc2nc(NCc3ccc(N4CCN(C)CC4)cc3)nc(NN3CC(=O)NC3=O)n2)cc1 [Compound 19, 1-((4-((4-methoxybenzyl)amino)-6-((4-(4-methylpiperazin-1-yl)benzyl)amino)-1,3,5-triazin-2-yl)amino)imidazolidine-2,4-dione]

IC50 [1]: ≤ 100 nM
Structure (SMILES): COc1ccc(CNc2nc(NCc3ccc(CN4CCN(C)CC4)cc3)nc(NN3CC(=O)NC3=O)n2)cc1 [Compound 16, 1-((4-((4-methoxybenzyl)amino)-6-((4-((4-methylpiperazin-1-yl)methyl)benzyl)amino)-1,3,5-triazin-2-yl)amino)imidazolidine-2,4-dione]
